Where “and” joins values, the source holds several entries; their conditions need not be identical. Equal entries are not always repeated. Where two headings read alike, the source gives them in different places.
Tests used:
[1] = test system: HIV-1 BH10 wild-type virus; assay: microbe, parasite or virus in culture; format: cell-based
[2] = test system: HIV-1 BH10 wild-type virus; assay: CPE / cell protection assay, MT-4 cells, BH10 wild-type; format: cell-based; settings: for EC50: Human immunodeficiency virus 1, MT4
Description: (§1) The activity of the compounds was also assessed with the same virus and cell type using a different assay readout based on cytopathic effect (CPE).
(§2) MT-4 cells (Source: NIH Catalog #120) were seeded onto 96-well cell culture plates (1×10^4 cells per well in 50 μL).
(§3) The final DMSO concentration in the assay was 0.5% in 120 μL. Cell cultures were then incubated at 37° C./5% CO2 for 4 days. Then, Cell Titer 96 AQueous One Solution Cell Proliferation Assay (Promega) was used to measure cell viability. Briefly, the One Solution Reagent was added directly to culture wells (20 μL/well), incubated for 5 hours, and the absorbance was recorded at 492 nm using the Sunrise Tecan Spectrophotometer.
(§4) The EC50 values were determined from the percent inhibition versus concentration data using a sigmoidal non-linear regression analysis based on four parameters with Tecan Magellan software.

[3] = test system: HIV-1 BH10 K103N mutant virus; assay: microbe, parasite or virus in culture; format: cell-based
Description: as §1, §2, §3, §4

HIV-1 NL4-3 w.t. virus = assay: microbe, parasite or virus in culture; format: cell-based
HIV-1 NL4-3 K103N virus = assay: microbe, parasite or virus in culture; format: cell-based
HIV-1 W.T. (NL4-3) virus = assay: PBMC cell assay, W.T. (NL4-3); format: cell-based; settings: Human immunodeficiency virus 1, NL43, PBMC
[4] = test system: HIV-1 IIIB K103R/V179D/P225H triple mutant virus; assay: microbe, parasite or virus in culture; format: cell-based; settings: for EC50: Human immunodeficiency virus 1, IIIB; for Fold Change, K103R/V179D/P225H: Table 16, IIIB
Description: The test articles were next profiled against a panel of HIV-1 IIIB laboratory cultivated mutants as summarized in the text below. Antiviral efficacy was determined via a CPE assay with an MTS read-out for cell viability.

HIV-1 IIIB in U937 cells = assay: Drug susceptibility assay, IIIB in U937 cells; format: cell-based; settings: Human immunodeficiency virus 1, IIIB, U-937; Table 17; read-out: Average EC50 Values ± Standard Deviation, host U937, virus IIIB
Excerpt: (§5) The virus and host-cell dependency of Compound I, Compound III and control drugs was further examined in drug susceptibility assays performed across 3 different subtype B wild-type HIV-1 strains and 5 different cell lines.

HIV-1 IIIB in H9 cells = assay: Drug susceptibility assay, IIIB in H9 cells; format: cell-based; settings: Human immunodeficiency virus 1, IIIB, H9; Table 17; read-out: Average EC50 Values ± Standard Deviation, host H9, virus IIIB
Excerpt: as §5

HIV-1 BH10 in U937 cells = assay: Drug susceptibility assay, BH10 in U937 cells; format: cell-based; settings: Human immunodeficiency virus 1, U-937; Table 17; read-out: Average EC50 Values ± Standard Deviation, host U937, virus BH10
Excerpt: as §5

[5] = test system: HIV-1 W.T. strains BH10, NL4-3 and IIIB; assay: Drug susceptibility assays, 3 W.T. strains in 5 human cell lines (ranges); format: cell-based
Excerpt: as §5

HIV-1 BH10 W.T. = assay: Anti-HIV-1 BH10 W.T. activity in presence of HS or AAG; format: cell-based; settings: for EC50: Human immunodeficiency virus 1
[6] = Cellular cytotoxicity, 4 days, MTS, U937; format: cell-based; settings: human, U-937 cells (monocytes derived from a histiocytic lymphoma), Table 21, read-out: Average CC50 Values ± Standard Deviation, U937
Description: (§6) Cell viability was measured by standard MTT or MTS staining.
(§7) Following drug exposure for 4 days, cell viability was measured by MTS staining and CC50 values were determined. Drug concentrations ranged from 0.005 μM to 100 μM.

[7] = Cellular cytotoxicity, 4 days, MTS, H9; format: cell-based; settings: human, H9 cells (lymphoblastic T cells), Table 21, read-out: Average CC50 Values ± Standard Deviation, H9
Description: as §6, §7

[8] = Cellular cytotoxicity, 4 days, six HIV-1 host cell lines (ranges); format: cell-based; settings: human, read-out: Mean CC50 Range
Description: as §6, §7

[9] = In vitro half-life in liver microsomes, rat; format: in vitro ADME; settings: liver microsomes, up to one hour, longer half-lives are extrapolated, n=1
Description: In vitro metabolism was assessed using liver microsomes for all species. Compounds were incubated at 1 μM with liver microsomes for up to one hour. Reported half-lives greater than the total incubation time are extrapolated values. Extracts were assayed for disappearance of parent compound by LC-MS/MS detection.
Data represents one independent experiment conducted.

[10] = Longer term cytotoxicity, 12 days, MTS, HuH7; settings: human, HuH7 liver cells
Description: as §6
(§8) Cells were repeatedly treated with a range of drug concentrations (0.005 to 100 μM) for 9 (HeLa) or 12 days (HuH7, HepG2).

[11] = Longer term cytotoxicity, HeLa, HuH7 and HepG2 (ranges); settings: human, HuH7 and HepG2 cells (range over the three lines), HuH7 and HepG2, 9-12 day testing
Description: as §6, §8

[12] = Table 20, vs 10% FBS only, listed as Cmpd III

## CO[P@](=O)(c1cc(C)cc(/C=C/C#N)c1)c1c(C(N)=O)[nH]c2ccc(Cl)cc12 [Compound III, (2-Carbamoyl-5-chloro-1H-indol-3-yl)-[3-((E)-2-cyano-vinyl)-5-methyl-phenyl]-(R)-phosphinic acid methyl ester]
[1]; Human immunodeficiency virus 1, MT4, 96 h, read-out: mean EC50, wild-type BH10 virus in MT-4 cells, p24 ELISA, 4 day
  EC50: 1.2 nM
[1]; Human immunodeficiency virus 1, MT4, read-out: Average EC50 Values ± Standard Deviation, host MT-4, virus BH10, Table 17
  EC50: 1.2 ± 0.6 nM
[1]; Table 7, EC50 mutant / EC50 wild-type
  Fold Change, W.T.: 1 fold
[1]; read-out: mean EC50, wild-type BH10 virus in MT-4 cells, p24 ELISA, 4 day
  EC50: ~1 nM and 1 nM
[2]; Cell Protection Assay tables, unit inferred, read-out: EC50, BH10
  EC50: 0.15 ± 0.11 nM
[2]; Table 8, CPE readout, read-out: Average EC50 Values ± Standard Deviation, W.T.
  EC50: 0.2 ± 0.1 nM
[2]; range over the three agents, read-out: mean EC50 values, WT BH10 virus, CPE assay
  EC50: 0.1 to 0.7 nM
[2]; Table 9, CPE
  Fold Change, W.T.: 1 fold
[3]; Human immunodeficiency virus 1, MT4, read-out: Average EC50 Values ± Standard Deviation, K103N
  EC50: 0.1 ± 0.1 nM
[3]; Human immunodeficiency virus 1, MT4, read-out: EC50, K103N
  EC50: 0.14 ± 0.052 nM
[3]; Table 9, CPE
  Fold Change, K103N: 1.1 ± 0.3 fold
HIV-1 NL4-3 w.t. virus; Human immunodeficiency virus 1, NL43, MT4, read-out: Average EC50 Values ± Standard Deviation, W.T.
  EC50: 1.7 ± 0.3 nM
HIV-1 NL4-3 w.t. virus; Human immunodeficiency virus 1, NL43, MT4, read-out: Average EC50 Values ± Standard Deviation, host MT-4, virus NL4-3
  EC50: 1.7 ± 0.3 nM
HIV-1 NL4-3 w.t. virus; Table 11, NL4-3
  Fold Change, W.T.: 1 fold
HIV-1 NL4-3 K103N virus; Human immunodeficiency virus 1, NL43, MT4, read-out: Average EC50 Values ± Standard Deviation, K103N
  EC50: 1.5 ± 0.3 nM
HIV-1 NL4-3 K103N virus; Table 11, NL4-3
  Fold Change, K103N: 0.9 ± 0.2 fold
HIV-1 W.T. (NL4-3) virus; read-out: Average EC50 Values ± Standard Deviation, W.T. (NL4-3)
  EC50: 1.5 ± 0.5 nM
HIV-1 W.T. (NL4-3) virus; read-out: mean EC50, NL4-3 strain in human PBMC
  EC50: 1.5 nM
[4]; MT4, read-out: Average EC50 Values ± Standard Deviation, K103R/V179D/P225H
  EC50: 25 ± 6 nM
[4]; MT4, read-out: EC50, K103R/V179D/P225H triple mutant virus
  EC50: 21 to 25 nM
[4]
  Fold Change, K103R/V179D/P225H: 53.5±12.8 fold
[4]; listed as Cmpd. III
  Fold Change, K103R/V179D/P225H: 53.5 ± 12.8 fold
HIV-1 IIIB in U937 cells
  EC50: 0.5 ± 0.1 nM
HIV-1 IIIB in H9 cells
  EC50: 0.5 ± 0.2 nM
HIV-1 BH10 in U937 cells
  EC50: 1.3 ± 0.6 nM
[5]; Human immunodeficiency virus 1, Table 17, over all virus/host combinations, read-out: Mean Activity Range
  EC50: 0.5 nM
[5]; Human immunodeficiency virus 1, read-out: EC50 range, 3 HIV-1 viral strains in 5 host human cell lines
  EC50: 0.5 to 1.7 nM
HIV-1 BH10 W.T.; Table 19, AAG 1 mg/ml, read-out: Average EC50 Values ± Standard Deviation, 10% Fetal Bovine Serum + AAG
  EC50: 2.8 ± 0.4 nM
HIV-1 BH10 W.T.; Table 19, AAG 1 mg/ml, read-out: Average EC50 Values ± Standard Deviation, 45% Human Serum + AAG
  EC50: 32.6 ± 7.3 nM
HIV-1 BH10 W.T.; Table 19, read-out: Average EC50 Values ± Standard Deviation, 10% Fetal Bovine Serum
  EC50: 1.2 ± 0.4 nM
HIV-1 BH10 W.T.; Table 19, read-out: Average EC50 Values ± Standard Deviation, 45% Human Serum
  EC50: 21.9 ± 11.7 nM
HIV-1 BH10 W.T.; text b887, read-out: mean EC50 values, 45% HS+AAG
  EC50: 32.6 nM
HIV-1 BH10 W.T.; Table 20
  Fold Change, 10% Fetal Bovine Serum: 1 fold
HIV-1 BH10 W.T.; Table 20, vs 10% FBS only
  Fold Change, 45% Human Serum: 17.0 ± 6.3 fold
  Fold Change, 45% Human Serum + AAG: 19.5 fold and 24.8 fold
HIV-1 BH10 W.T.; [12]
  Fold Change, 10% Fetal Bovine Serum + AAG: 2.1 ± 0.5 fold
  Fold Change, 45% Human Serum + AAG: 24.8 ± 3.8 fold
[6]
  CC50 at 4 days: 24600 ± 1900 nM
[7]
  CC50 at 4 days: 31300 ± 5200 nM
[8]
  CC50 at 4 days: 14800 to 50000 nM
[9]
  half-life at 1 μM: 1.48 h
[10]
  CC50 at 12 days: 31500 ± 3370 nM
[11]
  CC50: 23500 to 31500 nM

From patent US8486991B2, “Enantiomerically pure phosphoindoles as HIV inhibitors” (Idenix Pharmaceuticals, Inc., priority 2006, dated 2013)
